Test results from patent publication US9029389B2 (Institut Pasteur Korea, priority 2011, dated 2015).

Biological target: T1, Human 5-lipoxygenase (Homo sapiens, UniProt P09917)
T1 construct: purchased Cayman 60402; host or cells: insect cells
T1 sequence (P09917 1-674): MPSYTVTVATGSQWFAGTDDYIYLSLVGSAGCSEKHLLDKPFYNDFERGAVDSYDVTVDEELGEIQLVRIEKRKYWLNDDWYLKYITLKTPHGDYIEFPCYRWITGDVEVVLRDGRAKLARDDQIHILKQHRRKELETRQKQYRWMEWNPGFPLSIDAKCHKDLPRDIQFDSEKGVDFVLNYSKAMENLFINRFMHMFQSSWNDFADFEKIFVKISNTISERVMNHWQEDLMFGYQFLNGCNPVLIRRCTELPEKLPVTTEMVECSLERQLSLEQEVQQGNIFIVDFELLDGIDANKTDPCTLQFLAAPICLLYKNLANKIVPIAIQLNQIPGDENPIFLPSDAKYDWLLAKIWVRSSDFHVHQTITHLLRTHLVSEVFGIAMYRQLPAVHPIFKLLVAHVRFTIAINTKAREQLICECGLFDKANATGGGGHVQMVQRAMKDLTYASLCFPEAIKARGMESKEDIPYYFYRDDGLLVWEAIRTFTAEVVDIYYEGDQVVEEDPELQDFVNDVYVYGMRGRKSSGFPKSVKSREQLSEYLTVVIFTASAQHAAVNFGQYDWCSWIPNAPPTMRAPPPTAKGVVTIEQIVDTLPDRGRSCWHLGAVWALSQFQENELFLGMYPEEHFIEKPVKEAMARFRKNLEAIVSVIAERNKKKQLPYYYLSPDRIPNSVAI
Assay: Activity of compounds against 5-LO enzyme (LTB4 measurement and/or fluorescence method)
Format: biochemical
Conditions: for inhibition at 10 µM: 5-LO, single concentration of 10 uM in duplicate; for IC50: 6 or 11 point dose response in duplicate
Procedure, shortened: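 Insect-cell human 5-LO preincubated 15 min at RT with compound (pH 7.4, 2 mM CaCl2, 0.1 mM ATP, 1% DMSO), then 3 uM arachidonic acid for 5 min at 37 °C; LTB4 quantified by EIA and/or LC/MS/MS. Alternatively, fluorescence of 5-HpETE via H2DCFDA, 100 uM ATP, 3 uM arachidonic acid, 5 min, RT; single 10 uM screen then 6- or 11-point IC50.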

| SMILES | inhibition at 10 µM [%] | IC50 [µM] |
| --- | --- | --- |
| CCc1nc2ccc(Cl)cn2c1C(=O)NCc1ccc(-c2ccc(Cl)cc2)cc1 [compound 73, 6-Chloro-N-((4′-chlorobiphenyl-4-yl)methyl)-2-ethylimidazo[1,2-a]pyridine-3-carboxamide] | < 40 | – |
| O=C(NCc1ccc(-c2ccccc2)cc1)c1c(C(F)(F)F)nc2ccc(Cl)cn12 [compound 80, N-(Biphenyl-4-ylmethyl)-6-chloro-2-(trifluoromethyl)imidazo[1,2-a]pyridine-3-carboxamide] | < 40 | – |
| CCc1nc2cc(Cl)ccn2c1C(=O)NCc1ccc(N2CCC(Oc3ccc(OC(F)(F)F)cc3)CC2)cc1 [compound 123, 7-Chloro-2-ethyl-N-(4-(4-(4-(trifluoromethoxy)phenoxy)piperidin-1-yl)benzyl)imidazo[1,2-a]pyridine-3-carboxamide] | > 69 | > 20 |
| Cc1nc2cc(Cl)ccn2c1C(=O)NCc1ccc(-c2ccccc2)cc1 [compound 44, N-(Biphenyl-4-ylmethyl)-7-chloro-2-methylimidazo[2-a]pyridine-3-carboxamide] | < 40 | – |
| CCc1nc2cc(Cl)ccn2c1C(=O)NCc1ccc(OCc2ccc(OC(F)(F)F)cc2)cc1 [compound 171] | < 40 | – |
| CC(C)(C)c1ccc(CNC(=O)c2c(C(F)(F)F)nc3ccc(Cl)cn23)cc1 [compound 81, N-(4-tert-Butylbenzyl)-6-chloro-2-(trifluoromethyl)imidazo[1,2-a]pyridine-3-carboxamide] | < 40 | – |
| CCc1nc2ccc(Cl)cn2c1C(=O)NCc1ccc(C2CCN(C(=O)c3ccc(F)cc3)CC2)cc1 [compound 326, 6-chloro-2-ethyl-N-(4-(1-(4-fluorobenzoyl)piperidin-4-yl)benzyl)imidazo[1,2-a]pyridine-3-carboxamide] | < 40 | – |
| CCc1nc2ccc(Cl)cn2c1C(=O)NCc1ccc(N2CCC(OCc3ccc(F)cc3)CC2)cc1 [compound 300, 6-Chloro-2-ethyl-N-(4-(4-(4-fluorobenzyloxy)piperidin-1-yl)benzyl)imidazo[1,2-a]pyridine-3-carboxamide] | < 40 | – |
| CCc1nc2cc(Cl)ccn2c1C(=O)NCc1ccc(N2CCCCCC2)cc1 [compound 193, N-(4-(Azepan-1-yl)benzyl)-7-chloro-2-ethylimidazo[1,2-a]pyridine-3-carboxamide] | > 69 | > 20 |
| CCc1nc2ccc(Cl)cn2c1C(=O)NCc1ccc(OCC(C)C)cc1 [compound 66] | < 40 | – |
| CCc1nc2ccc(Cl)cn2c1C(=O)NCc1ccc(-c2ccccc2C)cc1 [compound 75, 6-Chloro-2-ethyl-N-((2′-methylbiphenyl-4-yl)methyl)imidazo[1,2-a]pyridine-3-carboxamide] | 40 to 69 | 1 to 20 |
| Cc1nc2ccccn2c1C(=O)NCCOCc1ccccc1 [compound 29, N-(2-(Benzyloxy)ethyl)-2-methylimidazo[1,2-a]pyridine-3-carboxamide] | < 40 | – |
| CCc1nc2ccccn2c1C(=O)NCc1ccc(OCC(C)C)cc1 [compound 54, 2-Ethyl-N-(4-isobutoxybenzyl)imidazo[1,2-a]pyridine-3-carboxamide] | < 40 | – |
| Cc1nc2ccccn2c1C(=O)NCC1CCCCC1 [compound 9, N-(Cyclohexylmethyl)-2-methylimidazo[1,2-a]pyridine-3-carboxamide] | < 40 | – |
| Cc1nc2cc(Cl)ccn2c1C(=O)NCc1ccccc1 [compound 16, N-Benzyl-7-chloro-2-methylimidazo[1,2-a]pyridine-3-carboxamide] | < 40 | – |
| CCc1nc2cnccn2c1C(=O)N1CCC(OCc2ccc(OC(F)(F)F)cc2)CC1 [compound 389, (2-Ethylimidazo[1,2-a]pyrazin-3-yl)(4-((4-(trifluoromethoxy)benzyl)oxy)piperidin-1-yl)methanone] | – | > 20 |
| Cc1nc2ccccn2c1NC(=O)Cc1ccccc1 [compound 41, N-(2-Methylimidazo[1,2-a]pyridin-3-yl)-2-phenylacetamide] | < 40 | – |
